Results from patent US8535897B2, “Assays for non-apoptotic cell death and uses thereof” (The Trustees of Columbia University in the City of New York, priority 2006, dated 2013).

Experiments:
[1] = tested on: BJ-TERT/LT/ST/RASV12; assay: Alamar blue viability assay, engineered tumor cells; format: cell-based, human
Protocol: Erastin was tested in a dilution series in five engineered cell lines derived from primary BJ fibroblasts. Cells were incubated with erastin for two days at 37° C. with 5% CO2, Alamar blue was added (10% final volume) and fluorescence measured (530 nm ex, 590 nm em). Cell lines harboring oncogenic RAS (triangles, circles and x's) were sensitive to erastin, but isogenic lines lacking oncogenic RAS (squares and diamonds) were resistant. Two different clones of engineered tumor cells (circles and triangles) responded similarly.
(a) BJ-TERT/LT/ST/RAS^V12 cells were treated with 9 μM erastin A1 for the indicated length of time, and the number of viable cells determined. (b) 1,000 BJ-TERT/LT/ST/RAS^V12 cells/well in 384-well plates were treated with erastin for 2 d, then alamar blue was added to a final concentration of 10% and the plates were incubated for 16 h. Red fluorescence resulting from reduction of alamar blue was detected on a Victor3 platereader. The percent growth inhibition is shown; error bars represent one SD. […] (c) TEM images (20,000× magnification) of BJ-TERT/LT/ST/RAS^V12 mitochondria after cells were treated with nothing, erastin (37 μM for 10 h) or staurosporine (STS, 1 μM for 5 h), and phase-contrast photograph of BJ-TERT/LT/ST/RAS^V12 cells 24 h after 9 μM erastin A1 treatment is also shown to indicate that even after cell death, nuclei are intact. (d) Anti-oxidants suppress erastin-induced death. BJ-TERT/LT/ST/RAS^V12 cells were treated as indicated and photographed. (e) The number of viable cells was quantified under each condition using a hemacytometer. (f) Iron chelators suppress erastin-induced cell death. Cells were seeded in 384-well plates (6,000 cells/well) and treated with 2-fold dilution series of erastin in the presence of 100 μM desferrioxamine mesylate (DFOM), 100 μM of iron chelator 1a, 100 μM of iron chelator 2, 10 μM or 1 μM of iron chelator 311. After 24 h, alamar blue was added and cell viability assayed. (g, h) Erastin-induced formation of oxidative species. BJ-TERT/LT/ST/RAS^V12 (shown in histogram plots, and in line graph as dark diamonds) or BJ-TERT cells (shown in line graph only, light circles) were treated with 4.6-μM erastin A1 and the level of intracellular oxidative species determined. (i, j) STS, but not erastin, induces PARP1 cleavage (red bands at top) in BJ-TERT/LT/ST/RAS^V12 cells and in A673, HT1080 and HeLa cells. NS: non-specific band. […] Cells were treated with STS or erastin, separated into mitochondrial and cytosolic fractions, and probed for cytochrome c (lower red band) and total VDAC (middle green band, pan-VDAC antibody). (1) Caspase-3 is not cleaved in response to erastin. Cells were treated as indicated and probed with an anti-caspase-3 antibody that recognizes both the full length and the cleaved, active form (lower band). […] ATP levels were measured, viable cells determined by Trypan Blue exclusion and ATP per viable cell determined. Abbreviations: DMSO, dimethylsulfoxide; BHT, butylated hydroxytoluene; TOC, alpha-tocopherol; ERA, erastin A1; CAR, beta-carotene; STS, staurosprine.
(a) Calu-1 lung carcinoma cells harboring oncogenic KRAS were infected with lentivirus containing shRNAs targeting KRAS or GFP. Sequences of shRNAs are indicated by starting nucleotide (nt) in the KRAS mRNA coding sequence. Cells were treated with erastin and viability measured by Trypan Blue exclusion. (b) Knockdown of KRAS was confirmed by western blot. (c,d) A673 cells harboring oncogenic BRAF were infected with lentiviral shRNAs targeting BRAF exon 5 (c) or the 5′ UTR (d), luciferase (LUC)(c) or GFP (d). Cells were treated with erastin and viability measured using Alamar Blue (c) and Trypan Blue (d). (e) Knockdown of BRAF was confirmed by western blot. […] BJ-TERT/LT/ST/RAS^V12 cells were treated with erastin alone or in with a MEK inhibitor U0126 (20 μM), MEK inhibitor I (10 μM) or MEK 1/2 inhibitor (50 μM). After 48 h, viability was determined using Trypan Blue. […]

[2] = tested on: several tumor cell lines; assay: Potency in several tumor cell lines; format: cell-based

Compound: CCOc1ccccc1-n1c(C(C)N2CCN(C(=O)COc3ccc(Cl)cc3)CC2)nc2ccccc2c1=O (stereo not drawn) [erastin]
- RAS-selective lethality [1]: at least 16 fold
- RAS selectivity ([1]; BJ-TERT/LT/ST vs BJ-TERT/LT/ST/RASV12): >16
- potency [2]: 1000 to 5000 nM
